Assays:
[1] = Evaluation of osmotic pressure of draw solutions (Osmomat 010, freezing point lowering method); format: physicochemical
Experimental: Osmotic pressure of each draw solution is measured by using osmotic pressure measurement equipment (Osmomat 010) in accordance with the freezing point lowering method.

[2] = Osmotic flow analysis: water flux and reverse solute flux in U-shaped semi-dynamic forward osmosis apparatus; details: feed distilled water
Experimental: The osmotic flow is evaluated with a homemade, U-shaped semi-dynamic forward osmosis apparatus. To test performance of the draw solute, a semi-permeable commercialized FO membrane (cellulose trifluoroacetate) (Hydration Technology Innovation (HTI), USA) is placed in the middle of the apparatus. Each side is filled with distilled water as a feed solution and a draw solution with predetermined or given concentrations, respectively. The selective layer is faced toward the feed solutions and osmotic water flux from feed to draw solutions is calculated from the volumetric change of each solution during one hour after 30 min. The reversed solute flux from draw to feed solution through the membrane is measured by conductivity, inductively coupled plasma optical emission spectroscopy (ICP-OES), and total organic carbon (TOC).

[3] = draw solution osmotic pressure 15.0
[4] = draw solution osmotic pressure 29.0
[5] = draw solution osmotic pressure 43.0
[6] = draw solution osmotic pressure 8.3
[7] = draw solution osmotic pressure 23.5
[8] = draw solution osmotic pressure 57.6

SMILES: [Cl-].[Cl-].[Mg+2] [Comp. Example 1, MgCl2]
- Osmotic pressure ([1]; draw solution concentration 19.0 mg/ml): 11.9 atm
- Osmotic pressure ([1]; draw solution concentration 38.1 mg/ml): 25.2 atm
- Osmotic pressure ([1]; draw solution concentration 76.2 mg/ml): 60.6 atm
- Reverse solute flux [2, 3]: 3.3 GMH
- Water flux [2, 3]: 5.6 LMH
- Reverse solute flux [2, 4]: 4.8 GMH
- Water flux [2, 4]: 8.2 LMH
- Reverse solute flux [2, 5]: 5.6 GMH
- Water flux [2, 5]: 9.7 LMH

SMILES: O=S(=O)([O-])[O-].[Mg+2] [Comp. Example 2, MgSO4]
- Osmotic pressure ([1]; draw solution concentration 60.2 mg/ml): 11.7 atm
- Osmotic pressure ([1]; draw solution concentration 120.4 mg/ml): 25.8 atm
- Osmotic pressure ([1]; draw solution concentration 240.7 mg/ml): 62.4 atm
- Reverse solute flux [2, 3]: 0.9 GMH
- Water flux [2, 3]: 4.2 LMH
- Reverse solute flux [2, 4]: 1.2 GMH
- Water flux [2, 4]: 5.5 LMH

SMILES: NCCN.O=C(O)CC(O)(CC(=O)O)C(=O)[O-].O=C([O-])CC(O)(CC(=O)[O-])C(=O)[O-].[Na+].[Na+].[Na+].[Na+] [Example 1]
- Osmotic pressure ([1]; draw solution concentration 29.6 mg/ml): 5.8 atm
- Osmotic pressure ([1]; draw solution concentration 118.4 mg/ml): 21.8 atm
- Osmotic pressure ([1]; draw solution concentration 177.6 mg/ml): 33.8 atm
- Osmotic pressure ([1]; draw solution concentration 236.8 mg/ml): 50.4 atm
- Osmotic pressure ([1]; draw solution concentration 266.4 mg/ml): 61.1 atm
- Reverse solute flux [2, 6]: 0 GMH
- Water flux [2, 6]: 4.06 LMH
- Reverse solute flux [2, 7]: 0.02 GMH
- Water flux [2, 7]: 8.25 LMH
- Reverse solute flux [2, 8]: 0.41 GMH
- Water flux [2, 8]: 11.58 LMH

SMILES: NCCNCCNCCNCCN.O=C(O)CC(O)(CC(=O)O)C(=O)[O-].O=C(O)CC(O)(CC(=O)O)C(=O)[O-].O=C([O-])CC(O)(CC(=O)O)C(=O)[O-].O=C([O-])CC(O)(CC(=O)[O-])C(=O)[O-].O=C([O-])CC(O)(CC(=O)[O-])C(=O)[O-].[Na+].[Na+].[Na+].[Na+].[Na+].[Na+].[Na+].[Na+].[Na+].[Na+] [Example 2]
- Osmotic pressure ([1]; draw solution concentration 34.2 mg/ml): 6.3 atm
- Osmotic pressure ([1]; draw solution concentration 68.5 mg/ml): 11.8 atm
- Osmotic pressure ([1]; draw solution concentration 102.7 mg/ml): 17.5 atm
- Osmotic pressure ([1]; draw solution concentration 205.43 mg/ml): 37.5 atm
- Osmotic pressure ([1]; draw solution concentration 301.2 mg/ml): 67.1 atm

SMILES: NCCCCCCNCCCCCCN.O=C(O)CC(O)(CC(=O)O)C(=O)[O-].O=C([O-])CC(O)(CC(=O)O)C(=O)[O-].O=C([O-])CC(O)(CC(=O)[O-])C(=O)[O-].[Na+].[Na+].[Na+].[Na+].[Na+].[Na+] [Example 4]
- Osmotic pressure ([1]; draw solution concentration 46.2 mg/ml): 8.6 atm
- Osmotic pressure ([1]; draw solution concentration 92.3 mg/ml): 17.2 atm
- Osmotic pressure ([1]; draw solution concentration 184.6 mg/ml): 38.2 atm
- Osmotic pressure ([1]; draw solution concentration 249.2 mg/ml): 59.3 atm

SMILES: NCCNCCN.O=S(=O)(O)O.O=S(=O)([O-])O.O=S(=O)([O-])[O-].[Na+].[Na+].[Na+] [Example 7]
- Osmotic pressure ([1]; draw solution concentration 46.3 mg/ml): 10.2 atm
- Osmotic pressure ([1]; draw solution concentration 92.6 mg/ml): 18.2 atm
- Osmotic pressure ([1]; draw solution concentration 185.2 mg/ml): 20.4 atm
- Osmotic pressure ([1]; draw solution concentration 277.8 mg/ml): 26.8 atm
- Osmotic pressure ([1]; draw solution concentration 370.4 mg/ml): 37.6 atm
- Osmotic pressure ([1]; draw solution concentration 463.0 mg/ml): 62.8 atm

Reference: patent US20150165380A1, “DRAW SOLUTES COMPRISING ALKYL AMMONIUM SALT COMPOUNDS” (Samsung Electronics Co., Ltd., priority 2013, published 2015)
